Measurements: patent US11230535B2, “CFTR regulators and methods of use thereof” (THE REGENTS OF THE UNIVERSITY OF CALIFORNIA, priority 2015, dated 2022)
Entries after “also recorded” stand apart in the source; their conditions may differ. Where two headings read alike, the source gives them in different places.

Legend:
human wild-type CFTR = human wild-type CFTR (Homo sapiens, UniProt P13569); test: Cell-based plate reader (YFP iodide influx) assay of CFTR function; parameters: expressed in transfected cells; host or cells: Fischer rat thyroid (FRT) cells stably co-expressing YFP-H148Q
Sequence of human wild-type CFTR (P13569 whole entry): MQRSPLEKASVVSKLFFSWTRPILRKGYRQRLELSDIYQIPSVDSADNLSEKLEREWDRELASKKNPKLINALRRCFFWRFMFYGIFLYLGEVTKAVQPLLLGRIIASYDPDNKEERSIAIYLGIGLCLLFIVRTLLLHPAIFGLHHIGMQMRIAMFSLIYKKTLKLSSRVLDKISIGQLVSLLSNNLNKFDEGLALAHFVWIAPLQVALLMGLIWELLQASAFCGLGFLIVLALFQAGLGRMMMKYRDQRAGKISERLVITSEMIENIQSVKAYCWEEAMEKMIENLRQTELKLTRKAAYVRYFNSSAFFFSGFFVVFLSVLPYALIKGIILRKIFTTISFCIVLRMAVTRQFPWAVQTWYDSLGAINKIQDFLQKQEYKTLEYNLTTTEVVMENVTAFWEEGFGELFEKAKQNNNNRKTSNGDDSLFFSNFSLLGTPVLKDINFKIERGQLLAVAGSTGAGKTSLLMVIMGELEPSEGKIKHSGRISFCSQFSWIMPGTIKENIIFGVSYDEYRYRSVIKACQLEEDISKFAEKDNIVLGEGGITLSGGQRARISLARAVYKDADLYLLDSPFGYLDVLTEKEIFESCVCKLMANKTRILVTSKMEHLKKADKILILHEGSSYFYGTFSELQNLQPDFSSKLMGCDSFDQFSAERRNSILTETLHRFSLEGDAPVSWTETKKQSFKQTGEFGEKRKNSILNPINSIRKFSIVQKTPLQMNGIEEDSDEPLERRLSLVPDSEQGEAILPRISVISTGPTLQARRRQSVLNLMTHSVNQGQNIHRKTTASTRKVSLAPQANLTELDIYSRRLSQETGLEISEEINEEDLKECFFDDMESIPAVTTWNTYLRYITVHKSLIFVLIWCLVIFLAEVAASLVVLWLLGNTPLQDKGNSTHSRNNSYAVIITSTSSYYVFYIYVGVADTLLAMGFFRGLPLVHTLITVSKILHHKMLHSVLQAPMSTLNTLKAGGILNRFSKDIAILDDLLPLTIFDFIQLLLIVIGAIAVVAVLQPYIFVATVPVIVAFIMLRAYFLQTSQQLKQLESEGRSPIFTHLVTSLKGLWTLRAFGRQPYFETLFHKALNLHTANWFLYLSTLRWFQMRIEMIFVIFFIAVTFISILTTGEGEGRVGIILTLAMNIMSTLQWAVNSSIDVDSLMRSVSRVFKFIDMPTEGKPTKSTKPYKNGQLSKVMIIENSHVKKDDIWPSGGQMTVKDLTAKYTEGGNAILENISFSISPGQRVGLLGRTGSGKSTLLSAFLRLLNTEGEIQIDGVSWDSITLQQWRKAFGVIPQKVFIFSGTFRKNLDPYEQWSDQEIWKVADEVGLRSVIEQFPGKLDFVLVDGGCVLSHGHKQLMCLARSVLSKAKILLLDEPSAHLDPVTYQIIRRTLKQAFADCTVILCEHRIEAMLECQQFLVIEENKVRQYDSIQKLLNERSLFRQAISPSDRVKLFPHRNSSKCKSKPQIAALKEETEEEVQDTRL
Summary of the method: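 YFP-quenching assay: I⁻ influx is read for 2 s baseline and 12 s after rapid I⁻ addition. The initial influx rate, from exponential regression, is a linear measure of channel function. Plates carry DMSO vehicle and 20 μM forskolin controls.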

rat liver microsomes = test: In vitro metabolic stability in rat liver microsomes; type: in vitro ADME; details: NADPH
Description: In vitro metabolic stability. Compounds (each 5 μM) were incubated for specified times at 37° C. with rat liver microsomes (1 mg/ml; Sigma-Aldrich) in potassium phosphate buffer containing 1 mM NADPH, as described^14.

mice = test: Tear secretion / tear volume in mice (phenol red thread); type: in vivo, mouse; details: for tear secretion / tear volume in CF mice: CF mice lacking functional CFTR; for tear secretion, in words / duration of increased tear secretion / increase in tear fluid secretion: single topical dose, wild-type mice
Description: To measure unstimulated tear production, phenol red threads (Zone-Quick, Oasis Medical, Glendora, Calif., USA) were placed for 10 s in the lateral canthi of isofluorane-anesthetized mice using jewelers' forceps. Tear volume was measured as the length of thread wetting, as visualized under a dissecting microscope. Serial measurements were used to evaluate compound pharmacodynamics after application of 2-μL drops of compound formulations (50-100 μM compound in PBS containing 0.5% polysorbate and 0.5% DMSO) comparing to vehicle.
Tear secretion. To measure unstimulated tear production, phenol red threads (Zone-Quick, Oasis Medical, Glendora, Calif., USA) were placed for 10 s in the lateral canthi of isofluorane-anesthetized mice using jewelers' forceps. Tear volume was measured as the length of thread wetting, as visualized under a dissecting microscope. Serial measurements were used to evaluate compound pharmacodynamics after application of 2-[…]L drops of compound formulations (50-100 μM compound in PBS containing 0.5% polysorbate and 0.5% DMSO) comparing to vehicle.
Tear volume. Tear volume was measured using phenol red threads (Zone-Quick, Oasis Medical, Glendora, Calif.) as described. Threads were placed for 10 s in the lateral canthi of isofluorane-anesthetized mice using jewelers' forceps. Tear volume was determined from the length of thread wetting as visualized under a dissecting microscope. Serial measurements were done to evaluate compound pharmacodynamics after topical application of a single, 2.5-μL drop of ophthalmic formulation containing 0-100 μM of 1 or 12 in Ringer's solution with 0.3% carboxymethylcellulose (high viscosity, VWR, Radnor, Pa.), 0.015% benzalkonium chloride preservative, and 1% DMSO. Both eyes in each mouse received the same treatment to control for potential contralateral effects of a given treatment.

FRT cells = test: Cytotoxicity by Alamar Blue assay in FRT cells; type: cell-based, rat; details: for cytotoxicity of 6k / 12: 10 μM, 8 h; for cytotoxicity at up to 100 μM: 1 or 24 h
[1] = system: CFTR activity at the ocular surface; test: Ocular surface potential difference (PD) in living mice; type: in vivo, mouse; details: wild-type mice; for change in ocular surface PD, in words: 1-10 μM
Description: (§1) Open-circuit transepithelial PD were measured continuously in anesthetized mice in response to serial perfusions of different solutions over the ocular surface, as described (21). Mice were anesthetized with Avertin (2,2,2-tribromoethanol, 125 mg/kg intraperitoneal, Sigma-Aldrich, St. Louis, Mo., USA), and core temperature was maintained at 37° C. using a heating pad. Eyes were oriented with the cornea and conjunctiva facing upward and exposed by retracting the eyelid with cross-action forceps. Solutions were isosmolar (320±10 mOsM; compositions provided in ref. 21) and contained 10μ[…] Qindomethacin to prevent CFTR activation by prostaglandins. The ocular surface was perfused at 6 mL/min through plastic tubing using a multireservoir gravity pinch-valve system (ALA Scientific, Westbury, N.Y., USA) and variable-flow peristaltic pump (medium flow model; Fisher Scientific, Fair Lawn, N.J., USA). A probe catheter was fixed 1 mm above the cornea using a micropositioner and a suction cannula was positioned 3 mm from the orbit. The measuring electrode was in contact to the perfusion catheter and connected to a high-impedance voltmeter (IsoMilivolt Meter; WPI). The reference electrode was grounded via a winged 21-gauge needle filled with isosmolar saline, and inserted subcutaneously in the abdomen. Measuring and reference electrodes consisted of Ag/AgCl with 3 M KCl agar bridges.
An open-circuit potential difference (PD) method developed in our lab was used to evaluate compound activity at the ocular surface in vivo, as depicted in FIG. 3A (21). Cl^− channel function was quantified by measuring PD during continuous perfusion of the ocular surface with a series of solutions that imposed a transepithelial Cl^− gradient and contained various channel agonists and/or inhibitors. The ocular surface was first perfused with isosmolar saline to record the baseline PD. Amiloride was then added to the perfusate, followed by exchange to a low Cl^− solution in which Cl^− with an impermeant anion, gluconate. These maneuvers allow for direct visualization of CFTR activation in response to addition of candidate CFTR activators.
as §1, with “Ocular surface potential difference measurements. Open-circuit” for “Open-circuit”, “indomethacin” for “Qindomethacin”, “Measuring and reference electrodes consisted of Ag/AgCl with 3 M KCl agar bridges.” left out

SMILES: CNc1nc(Nc2ccccc2)nc(OCC(F)(F)C(F)F)n1 [compound 12, N-methyl-N′-phenyl-6-(2,2,3,3-tetrafluoropropoxy)-1,3,5-triazine-2,4-diamine]
- fold better EC50 than diethylamine analog 6a (human wild-type CFTR): ~50 fold
- fold more potent than hexafluoropropanol analog 11 (human wild-type CFTR): ~3 fold
- EC50 (human wild-type CFTR; N-methyl-N′-phenyl-1,3,5-triazine diamine analogs, read-out: EC50): 40 nM
- metabolic stability in hepatic microsomes, in words (rat liver microsomes): rapidly metabolized by hepatic microsomes
- duration of sustained effect on tear volume (mice; 25 pmol, single dose): 8 h
- duration of sustained increase in tear volume (mice; 100 μM (250 pmol), single dose): 8 h
- time of return of tear volume to baseline (mice; 100 μM (250 pmol), single dose): 12 to 24 h
- tear secretion / tear volume in CF mice (mice): without effect; also recorded: did not increase tear volume
- time of maximal tear volume (mice; doses down to 25 pmol): 1 to 3 h
- duration of sustained in vivo efficacy (mice; mice): at least 8 hours
- lowest dose with similar activity on tear volume (mice; single-dose dose-response): 25 pmol
- cytotoxicity of 6k / 12 (FRT cells): non-toxic; also recorded: did not produce significant toxicity

SMILES: CCN(CC)c1nc(Nc2ccc3ncsc3c2)nc(OC(C(F)(F)F)C(F)(F)F)n1 [6k, N′-(1,3-Benzothiazol-6-yl)-N,N-diethyl-6-[(1,1,1,3,3,3-hexafluoropropan-2-yl)oxy]-1,3,5-triazine-2,4-diamine]
- EC50 (human wild-type CFTR): ~50 nM
- fold increase in potency over benzoxazole 6j (human wild-type CFTR): ~3 fold
- EC50 (human wild-type CFTR; bicyclic aniline analogs, read-out: EC50): 50 nM
- original compound remaining at 60 min (rat liver microsomes; 5 μM, rat hepatic microsomes): ~60%
- metabolic stability in hepatic microsomes, in words (rat liver microsomes): metabolized slowly; also recorded: substantially greater in vitro metabolic stability than 1 or 12
- cytotoxicity of 6k / 12 (FRT cells): did not produce significant toxicity

SMILES: CC(C)(C)c1cc(C(C)(C)C)c(NC(=O)c2c[nH]c3ccccc3c2=O)cc1O [VX-770, reference compound]
- tear secretion, in words (mice): little tear secretion
- change in ocular surface PD, in words [1]: minimal changes in ocular surface PD

SMILES: Nc1ccc([N+](=O)[O-])cc1-c1nc2ccccc2n(Cc2ccccc2)c1=O [CFTRact-J027, 3-(2-amino-5-nitrophenyl)-1-benzylquinoxalin-2(1H)-one]
- duration of increased tear secretion (mice): at least four
- increase in tear fluid secretion (mice): approximately two-fold
- change in ocular surface PD, in words [1]: large hyperpolarizations
- cytotoxicity at 20 μM (FRT cells; 20 μM): did not show cytotoxicity
- cytotoxicity at 25 μM (FRT cells; 25 μM): did not show significant in vitro cytotoxicity
- non-cytotoxic concentration relative to EC50 for CFTR activation (FRT cells; 25 μM): > 100 fold
- cytotoxicity at up to 100 μM (FRT cells): no appreciable in vitro cytotoxicity

SMILES: CCN(CC)c1nc(Nc2ccccc2)nc(OC(C(F)(F)F)C(F)(F)F)n1 [CFTRact-K089, N,N-Diethyl-6-[(1,1,1,3,3,3-hexafluoropropan-2-yl)oxy]-N′-phenyl-1,3,5-triazine-2,4-diamine]
- EC50 (human wild-type CFTR; N,N-diethyl-N′-aryl-1,3,5-triazine diamine analogs, read-out: EC50 for CFTR activation): 240 nM
- % Activation (human wild-type CFTR; commercial analogs, FRT cells with YFP and wildtype CFTR, 125 nM forskolin): 111%
- EC50 (human wild-type CFTR; commercial analogs, read-out: EC50 (full-dose response assay, compounds >80% activation)): 250 nM
- metabolic stability in hepatic microsomes, in words (rat liver microsomes): metabolized rapidly
- tear secretion / tear volume in CF mice (mice): no effect
- duration of increased tear secretion (mice): four and at least four
- increase in tear fluid secretion (mice): approximately two-fold
- tear secretion, in words (mice): doubled basal tear secretion
- hyperpolarization in ocular surface potential difference [1]: ~8.5 mV
- change in ocular surface PD, in words [1]: large hyperpolarizations
- cytotoxicity at up to 100 μM (FRT cells): no appreciable in vitro cytotoxicity
